Test results reported in patent publication US20230407243A1, “GENETIC PLATFORM TO INVESTIGATE THE FUNCTIONS OF BACTERIAL DRUG EFFLUX PUMPS” (priority 2022, published 2023).
Where two headings read alike, the source gives them in different places.

Assays:
Format in all cases: cell-based, Escherichia coli
EKO-35 araC::acrB Pore = experiment: MIC susceptibility profiling, porinated efflux platform; conditions: for Fold changes of MICs: EKO-35 araC::acr-B Pore compared to EKO-35-Pore; for MIC: Escherichia coli, Table 14A, porinated, technical duplicate, read-out: Minimum inhibitory concentration, EKO-35 araC::acrB Pore
How it was run: (§1)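 Strains carry the fhuA ΔC/Δ4L pore integrated between glmS and pstS under a constitutive promoter, with pore activity checked by vancomycin susceptibility. Overnight LB cultures were adjusted in PBS pH 7.4 to OD600 ~1.0 and diluted 1/2000 into MHB II. 2-fold compound titrations were read by OD600 after 18 h at 37 °C.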

EKO-35 araC::mdtEF Pore = experiment: as above; conditions: for Fold changes of MICs: EKO-35 araC::mdtEF Pore compared to EKO-35-Pore; for MIC: Escherichia coli, Table 14A, porinated, technical duplicate, read-out: Minimum inhibitory concentration, EKO-35 araC::mdtEF Pore
How it was run: as §1

EKO-35 araC::mdtBC Pore = experiment: as above; conditions: for Fold changes of MICs: EKO-35 araC::mdtBC Pore compared to EKO-35-Pore; for MIC: Escherichia coli, EKO-35 araC::mdtBC Pore, technical duplicate, read-out: Minimum inhibitory concentration
How it was run: as §1

ΔtolC-Pore = experiment: microbe, parasite or virus in culture; conditions: for MIC: Escherichia coli, 18 h, read-out: Minimum inhibitory concentration, ΔtolC-Pore; for Minimum inhibitory concentration (MIC), Pore ΔtolC: Table 10, with pore, technical duplicate
How it was run: as §1

wild-type (WT) K-12-Pore = experiment: microbe, parasite or virus in culture; conditions: Escherichia coli, technical duplicate
How it was run: as §1

EKO-35-Pore = experiment: MIC susceptibility profiling, porinated strain; conditions: for Fold changes of MICs: EKO-35-Pore compared to EKO-35-Pore (reference); for MIC: Escherichia coli, technical duplicate
How it was run: as §1

E. coli EKO-35 = experiment: microbe, parasite or virus in culture; conditions: for Fold change of MICs: EKO-35 compared to EKO-35 (reference); for MIC: Escherichia coli, EKO35, technical duplicate
How it was run: (§2)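 MHB II broth microdilution; inoculum from 18 h LB culture, PBS-adjusted to OD600 ~1.0, then 1/2000 dilution. Compounds 2-fold titrated, duplicates, DMSO solvent control. 18 h, 37 °C, 900 rpm; background-corrected OD600 end point.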

E. coli ΔtolC = experiment: microbe, parasite or virus in culture; conditions: for MIC: Escherichia coli, 18 h, read-out: Minimum Inhibitory Concentration, ΔtolC; for Minimum inhibitory concentration (MIC), ΔtolC: Table 10, without pore, technical duplicate
How it was run: as §2

[1] = test system: wild-type E. coli K-12 str. BW25113; experiment: microbe, parasite or virus in culture; conditions: Escherichia coli, BW25113, technical duplicate
How it was run: as §2

EKO-35 araC::acrD = experiment: MIC susceptibility profiling, efflux platform; conditions: for Fold change of MICs: EKO-35 araC::acrD compared to EKO-35; for MIC: Escherichia coli, Table 13A, non-porinated, technical duplicate, read-out: Minimum Inhibitory Concentration, EKO-35 araC::acrD
How it was run: as §2

EKO-35 araC::emrAB = experiment: MIC susceptibility profiling, efflux platform; conditions: for Fold change of MICs: EKO-35 araC::emrAB compared to EKO-35; for MIC: Escherichia coli, Table 13B, non-porinated, technical duplicate, read-out: Minimum Inhibitory Concentration, EKO-35 araC::emrAB
How it was run: as §2

EKO-35 araC::acrEF = experiment: MIC susceptibility profiling, efflux platform; conditions: for Fold change of MICs: EKO-35 araC::acrEF compared to EKO-35; for MIC: Escherichia coli, Table 13A, non-porinated, technical duplicate, read-out: Minimum Inhibitory Concentration, EKO-35 araC::acrEF
How it was run: as §2

EKO-35 araC::acrB = experiment: MIC susceptibility profiling, efflux platform; conditions: for Fold change of MICs: EKO-35 araC::acrB compared to EKO-35; for MIC: Escherichia coli, Table 13A, non-porinated, technical duplicate, read-out: Minimum Inhibitory Concentration, EKO-35 araC::acrB
How it was run: as §2

EKO-35 araC::mdtEF = experiment: MIC susceptibility profiling, efflux platform; conditions: for Fold change of MICs: EKO-35 araC::mdtEF compared to EKO-35; for MIC: Escherichia coli, Table 13A, non-porinated, technical duplicate, read-out: Minimum Inhibitory Concentration, EKO-35 araC::mdtEF
How it was run: as §2

EKO-35 araC::emrKY = experiment: MIC susceptibility profiling, efflux platform; conditions: for Fold change of MICs: EKO-35 araC::emrKY compared to EKO-35; for MIC: Escherichia coli, Table 13B, non-porinated, technical duplicate, read-out: Minimum Inhibitory Concentration, EKO-35 araC::emrKY
How it was run: as §2

EKO-35 araC::macAB = experiment: MIC susceptibility profiling, efflux platform; conditions: for Fold change of MICs: EKO-35 araC::macAB compared to EKO-35; for MIC: Escherichia coli, Table 13B, non-porinated, technical duplicate, read-out: Minimum Inhibitory Concentration, EKO-35 araC::macAB
How it was run: as §2

[2] = test system: EKO-35 araC::mexCD (MexCD from P. aeruginosa); experiment: MIC susceptibility profiling, efflux platform; conditions: for Fold change of MICs: EKO-35 araC::mexCD compared to EKO-35; for MIC: Table 13B, non-porinated, technical duplicate, read-out: Minimum Inhibitory Concentration, EKO-35 araC::mexCD
How it was run: as §2

EKO-35 araC::acrBD408A = experiment: MIC susceptibility profiling, efflux platform; conditions: for Fold change of MICs: EKO-35 araC::acrBD408A compared to EKO-35; for MIC: Escherichia coli, Table 13B, non-porinated, technical duplicate, read-out: Minimum Inhibitory Concentration, EKO-35 araC::acrBD408A
How it was run: as §2

EKO-35 araC::mdtBC = experiment: MIC susceptibility profiling, efflux platform; conditions: for Fold change of MICs: EKO-35 araC::mdtBC compared to EKO-35; for MIC: Escherichia coli, Table 13B, non-porinated, technical duplicate, read-out: Minimum Inhibitory Concentration, EKO-35 araC::mdtBC
How it was run: as §2

[3] = Table 10, with pore, read-out: Minimum inhibitory concentration (MIC), Pore K-12
[4] = Table 14A, porinated, read-out: Minimum inhibitory concentration, K-12 (WT)-Pore
[5] = Table 10, with pore, read-out: Minimum inhibitory concentration (MIC), Pore EKO-35
[6] = Table 14A, porinated, read-out: Minimum inhibitory concentration, EKO-35-Pore
[7] = Table 10, without pore, read-out: Minimum inhibitory concentration (MIC), EKO-35
[8] = Table 13A, non-porinated, read-out: Minimum Inhibitory Concentration, EKO-35
[9] = Table 10, without pore, read-out: Minimum inhibitory concentration (MIC), K-12
[10] = Table 13A, non-porinated, read-out: Minimum Inhibitory Concentration, K-12

Row | SMILES | Fold changes of MICs (EKO-35 araC::acrB Pore) | MIC (EKO-35 araC::acrB Pore) | Fold changes of MICs (EKO-35 araC::mdtEF Pore) | MIC (EKO-35 araC::mdtEF Pore) | Fold changes of MICs (EKO-35 araC::mdtBC Pore) | MIC (EKO-35 araC::mdtBC Pore) | MIC (ΔtolC-Pore) | Minimum inhibitory concentration (MIC), Pore ΔtolC (ΔtolC-Pore) | MIC (wild-type (WT) K-12-Pore; [3]) | MIC (wild-type (WT) K-12-Pore; [4]) | Fold changes of MICs (EKO-35-Pore) | MIC (EKO-35-Pore; [5]) | MIC (EKO-35-Pore; [6]) | Fold change of MICs (E. coli EKO-35) | MIC (E. coli EKO-35; [7]) | MIC (E. coli EKO-35; [8]) | MIC (E. coli ΔtolC) | Minimum inhibitory concentration (MIC), ΔtolC (E. coli ΔtolC) | MIC [1, 9] | MIC [1, 10] | also measured
1 | CC(=O)NC[C@H]1CN(c2ccc(N3CCOCC3)c(F)c2)C(=O)O1 [linezolid] | 16 fold | 62.5 µg/mL | 2 fold | 7.81 µg/mL | 1 fold | 3.91 µg/mL | 3.91 µg/mL | 3.906 µg/mL | 125 µg/mL | 125 µg/mL | 1 fold | 3.91 µg/mL | 3.91 µg/mL | 1 fold | 7.81 µg/mL | 7.81 µg/mL | 7.81 µg/mL | 7.813 µg/mL | 500 µg/mL | 500 µg/mL | Fold change of MICs (EKO-35 araC::acrD): 1 fold; MIC (EKO-35 araC::acrD): 7.81 µg/mL; Fold change of MICs (EKO-35 araC::emrAB): 1 fold; MIC (EKO-35 araC::emrAB): 3.91 µg/mL; Fold change of MICs (EKO-35 araC::acrEF): 2 fold; MIC (EKO-35 araC::acrEF): 15.6 µg/mL; Fold change of MICs (EKO-35 araC::acrB): 32 fold; MIC (EKO-35 araC::acrB): 250 µg/mL; Fold change of MICs (EKO-35 araC::mdtEF): 1 fold; MIC (EKO-35 araC::mdtEF): 3.91 µg/mL; Fold change of MICs (EKO-35 araC::emrKY): 1 fold; MIC (EKO-35 araC::emrKY): 3.91 µg/mL; Fold change of MICs (EKO-35 araC::macAB): 1 fold; MIC (EKO-35 araC::macAB): 3.91 µg/mL; Fold change of MICs [2]: 2 fold; MIC [2]: 15.6 µg/mL; Fold change of MICs (EKO-35 araC::acrBD408A): 1 fold; MIC (EKO-35 araC::acrBD408A): 7.81 µg/mL; Fold change of MICs (EKO-35 araC::mdtBC): 1 fold; MIC (EKO-35 araC::mdtBC): 3.91 µg/mL
2 | CN(C)c1ccc(O)c2c1C[C@H]1C[C@H]3[C@H](N(C)C)C(O)=C(C(N)=O)C(=O)[C@@]3(O)C(O)=C1C2=O [minocycline] | 8 fold | 0.391 µg/mL | 2 fold | 0.098 µg/mL | 1 fold | 0.049 µg/mL | 0.098 µg/mL | 0.098 µg/mL | 0.781 µg/mL | 0.781 µg/mL | 1 fold | 0.049 µg/mL | 0.049 µg/mL | 1 fold | 0.049 µg/mL | 0.049 µg/mL | 0.098 µg/mL | 0.098 µg/mL | 0.781 µg/mL | 0.781 µg/mL | Fold change of MICs (EKO-35 araC::acrD): 2 fold; MIC (EKO-35 araC::acrD): 0.098 µg/mL; Fold change of MICs (EKO-35 araC::emrAB): 1 fold; MIC (EKO-35 araC::emrAB): 0.049 µg/mL; Fold change of MICs (EKO-35 araC::acrEF): 2 fold; MIC (EKO-35 araC::acrEF): 0.098 µg/mL; Fold change of MICs (EKO-35 araC::acrB): 8 fold; MIC (EKO-35 araC::acrB): 0.391 µg/mL; Fold change of MICs (EKO-35 araC::mdtEF): 1 fold; MIC (EKO-35 araC::mdtEF): 0.049 µg/mL; Fold change of MICs (EKO-35 araC::emrKY): 1 fold; MIC (EKO-35 araC::emrKY): 0.049 µg/mL; Fold change of MICs (EKO-35 araC::macAB): 1 fold; MIC (EKO-35 araC::macAB): 0.049 µg/mL; Fold change of MICs [2]: 1 fold; MIC [2]: 0.049 µg/mL; Fold change of MICs (EKO-35 araC::acrBD408A): 1 fold; MIC (EKO-35 araC::acrBD408A): 0.049 µg/mL; Fold change of MICs (EKO-35 araC::mdtBC): 1 fold; MIC (EKO-35 araC::mdtBC): 0.049 µg/mL
